Reference: patent US5202456A, “Compounds for inhibition of protein methylation” (The President and Fellows of Harvard College, priority 1991, dated 1993)
Entries after “also recorded” stand apart in the source; their conditions may differ. Like-named read-outs stand apart in the source and are kept apart here. One block for each molecule: values may come before it. * marks the point of attachment. Farnesyl = CC(C)=CCC/C(C)=C/CC/C(C)=C/C*

Assays:
[1] = system: demethylase activity in ROS membranes; assay: Methylation exchange/demethylation of AFC methyl ester with ROS membranes; assay type: biochemical, bovine
Experimental: (§1) Frozen bovine retinas (Wanda Lawson Co., Lincoln, Nebr.) were used to prepare ROS membranes depleted of peripheral proteins using a modification of the procedure of Wessling-Resnick et al. (J. Biol. Chem. 262:3697, 1987). Briefly, ROS membranes were washed with low ionic strength buffer and 100μM GTP, resuspended in 50 mM Hepes-Na (pH 7.4), 100 mM NaCl, 5 mM MgCl2, 0.1 mM phenylmethylsulfonyl fluoride, 0.1 mM dithiothreitol (buffer A) and stored in small aliquots at -80° C. until used. Transducin was isolated by disrupting ROS membranes by passing the membranes through a narrow needle and washing the disrupted membranes in a series of centrifugation steps as described by Wessling-Resnick et al. (J. Biol. Chem. 262:3697, 1987). Finally transducin was eluted from the membranes with 100μM GTP. The transducin-enriched supernatant was concentrated using Centriprep (Amicon).
(§2) For initial studies, the reaction mixture contained 20 μCi of S-adenosyl-[methyl-^3 H] methionine ([^3 H]SAM) (2.34 μM, Amersham) and an aliquot of ROS (120μg of total protein) or of washed ROS membranes (80μg of total protein) in 100 μl of buffer A. Purified transducin was added to this mixture to a concentration of 5 μM. AFC, N-acetylcysteine, or AFC methylester was added in 2 μl of dimethyl sulfoxide to give a final concentration of 20 μM, and the reaction was carried out at 37° C.
To study the demethylation process directly, AFC[^3 H]methyl ester was incubated with ROS membranes in the presence of methylation inhibitors. […] Under similar conditions, demethylation of Tγ and the putative small G protein (23-29 kDa) was also observed.

HL-60 cell extracts = assay: Turnover of AFC methyl ester by HL-60 cell extracts; assay type: biochemical; conditions: in words
23 kDa ras protein = assay: [3H]SAM methylation of 23 kDa ras protein in disrupted HL-60 cells; assay type: biochemical; conditions: 50 μM
Experimental: In an in vitro labelling reaction similar to that described above for ROS membranes, the 23 kDa ras protein was the principle protein methylated by [^3 H]SAM labelling of disrupted HL-60 cells. In this assay 50 μM FTA inhibited methylation of the 23 kDa protein by 61%.

[2] = system: methyltransferase activity in HL-60 cells; assay: Methylation of AFC by activity present in HL-60 cell membrane; assay type: biochemical; conditions: 10-fold excess of FTA
transducin γ subunit = assay: In vitro carboxyl-methylation of transducin γ subunit in ROS; assay type: biochemical, bovine; conditions: 10 μM; [3H]SAM 2.3 μM; densitometry of SDS gels
Description: We have identified an S-adenosyl-L-methionine-dependent methyltransferase activity in bovine retinal rod outer segments (ROS) which methylates the free carboxyl group of the farnesylated cysteine of bovine retinal transducin γ subunit. The bovine retinal transducin γ subunit has a carboxyl-terminal --CAAX motif and undergoes a farnesylation reaction similar to that observed on ras (Lai et al., Proc. Natl. Acad. Sci. USA 87:7673, 1990; Fukada et al., Nature 346:658, 1990). Bovine retinal rod outer segment S-adenosyl-L-methionine-dependent methyltransferase (ROS methyltransferase) provides a means by which to identify compounds capable of interfering with the methylation of proteins having a carboxyl-terminal --CAAX motif.
Frozen bovine retinas (Wanda Lawson Co., Lincoln, Nebr.) were used to prepare ROS membranes depleted of peripheral proteins using a modification of the procedure of Wessling-Resnick et al. (J. Biol. Chem. 262:3697, 1987). Briefly, ROS membranes were washed with low ionic strength buffer and 100μM GTP, resuspended in 50 mM Hepes-Na (pH 7.4), 100 mM NaCl, 5 mM MgCl2, 0.1 mM phenylmethylsulfonyl fluoride, 0.1 mM dithiothreitol (buffer A) and stored in small aliquots at -80° C. until used. […]

HL-60 cells = assay: Inhibition of HL-60 cell proliferation (trypan blue dye exclusion count); assay type: cell-based; conditions: FIG. 2; in words
Experimental: FTA, FTP, AFHC and AFC were tested for their ability to inhibit cell growth as follows.
HL-60 cells (ATCC CCL 240, American Type Culture Collection, Rockville, Md.) which harbor an activated ras gene were grown in RPMI medium (Gibco/BRL, Bethesda, Md.) supplemented with 10-15% fetal calf serum, L-glutamine, penicillin and streptomycin. These cells were treated with various concentrations of FTA, FTP, AFHC, or AFC dissolved in dimethyl sulfoxide (DMSO) or with DMSO only (In all experiments the final DMSO concentration was 1% or less). Treated ans untreated cells were incubated under standard culture conditions for several days. Cells were counted manually at 24 hour intervals using a trypan blue dye exclusion assay which counts only live, intact cells.

[3] = biological target: T1, ROS methyltransferase (bovine retinal rod outer segment S-adenosyl-L-methionine-dependent methyltransferase) (Bos taurus, UniProt A0AAA9SD88); assay: ROS methyltransferase assay: compounds as substrates (Km) or inhibitors (Ki) of AFC methylation; assay type: biochemical
T1 construct: utilizing ROS membranes as the source of methyltransferase enzyme; tissue Wanda Lawson Co., Lincoln, Nebr; (frozen bovine retinas); host or cells: bovine retinal rod outer segment (ROS) membranes
Experimental: Standard assays may be used to determine Km for substrates and Ki for inhibitors. […] The values of Ki and Km are calculated from kinetic assays by conventional means (Fersht, Enzyme Structure and Mechanism, W. H. Freeman and Co., New York, 1984). Examples are provided below to illustrate suitable assays, and are not intended to limit the invention.
One suitable assay of methylation functions uses bovine retinal rod outer segment (ROS) methyltransferase and a natural substrate, transducin. […] Another suitable assay uses N-acetyl-S-farnesylcysteine as a substrate for ROS methyltransferase.
The bovine retinal transducin γ subunit has a carboxyl-terminal --CAAX motif and undergoes a farnesylation reaction similar to that observed on ras (Lai et al., Proc. Natl. Acad. Sci. USA 87:7673, 1990; Fukada et al., Nature 346:658, 1990).
as §1, §2
The above-described methyltransferase assay was used to analyze the analogs described above.

[4] = system: methyltransferase present in HL-60 cell extracts; assay: Methylation of transducin γ subunit by HL-60 cell extract methyltransferase; assay type: biochemical; conditions: in words
[5] = [3H]SAM and washed ROS membranes

T1 sequence (A0AAA9SD88 1-284): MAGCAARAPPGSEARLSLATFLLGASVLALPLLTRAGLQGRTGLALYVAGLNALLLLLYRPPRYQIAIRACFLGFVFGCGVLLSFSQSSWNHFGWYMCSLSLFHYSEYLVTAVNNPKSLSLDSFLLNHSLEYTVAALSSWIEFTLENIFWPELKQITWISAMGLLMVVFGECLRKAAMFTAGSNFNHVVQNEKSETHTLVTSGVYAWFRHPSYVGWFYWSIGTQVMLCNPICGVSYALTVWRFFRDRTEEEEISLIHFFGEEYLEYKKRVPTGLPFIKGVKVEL

hydrolysis of methyl ester by demethylase activity ([1]; ROS membranes, in presence of methylation inhibitors): rapidly hydrolyzed
duration of linear incorporation of radioactivity [1, 5]: at least 2 hr
Molecule: COC(=O)[C@H](CSC/C=C(\C)CC/C=C(\C)CCC=C(C)C)NC(C)=O [AFC methyl ester]
incorporation of radioactivity into AFC methyl ester [1, 5]: linear, time-dependent incorporation of radioactivity
turnover by HL-60 cell extracts (HL-60 cell extracts): can be turned over

Ki ([3]; Table 1, conventional inhibitors, read-out: Ki): 4.6 µM
Ki ([3]; calculated, read-out: Ki for inhibition of AFC methylation): 4.6 µM
competitive inhibition of AFC methylation ([3]; in words): potent competitive inhibitors
Molecule: CC(C)=CCC/C(C)=C/CC/C(C)=C/CSCC(=O)O [FTA, 2-farnesylthioacetic acid]
inhibition of methylation of the 23 kDa protein (23 kDa ras protein): 61%
inhibition of AFC methylation by HL-60 membrane activity [2]: 90%
inhibition of in vitro carboxyl-methylation of transducin γ subunit (transducin γ subunit): 70%
inhibition of proliferation of HL-60 cells (HL-60 cells): can inhibit proliferation
substrate activity for ROS methyltransferase ([3]; in words): substrate activity was lost; also recorded: not substrates

B1: γ subunit of transducin: γ subunit (Tγ) of retinal transducin, farnesylated at cysteine (protein, UniProt P02698 2-71, looked up)
Guanine nucleotide-binding …: PVINIEDLTEKDKLKMEVDQLKKEVTLERMLVSKCCEEFRDYVEERSGEDPLVKGIPEDKNPFKELKGGC(Farnesyl)
modifications: ends and bridges not checked
notes: γ subunit (Tγ) of retinal transducin, farnesylated at cysteine
methylation by methyltransferase in HL-60 cell extracts [4]: can be methylated
